≈ marks a conversion by molar mass, not a printed value.
How the values were obtained:
[1] = Rat Hepatocyte Stability (Test E); assay type: in vitro ADME; details: rat, hepatocytes, geometric mean if run multiple times
How it was run: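 Intrinsic clearance in rat hepatocytes, expressed as μl/min/10^6 cells, following the literature integrated DMPK panel method. Repeat determinations combined as geometric mean.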

[2] = Solubility (Test F); assay type: physicochemical; details: arithmetic mean if run multiple times
Method: The assay was conducted according to the Solubility Assay described in pages 164-167 of Wernevik, J. et al., “A Fully Integrated Assay Panel for Early Drug Metabolism and Pharmacokinetics Profiling”, Assay and Drug Development Technologies, 2020, 18(4), 157-179. Data are reported in Table 36 as solubility ([…]. Where the assay was run multiple times for the same compound, the arithmetic mean is reported.

[3] = molecular target: T1, human RXFP1 (Homo sapiens, UniProt Q9HBX9); experiment: Human RXFP1 cGMP Production Assay (Test G); assay type: cell-based; design: expressed in transfected cells; details: HEK293s cells stably transfected with human RXFP1; Green GENIe cGMP biosensor, area under curve 0 to 90 min
T1 sequence (Q9HBX9 1-757): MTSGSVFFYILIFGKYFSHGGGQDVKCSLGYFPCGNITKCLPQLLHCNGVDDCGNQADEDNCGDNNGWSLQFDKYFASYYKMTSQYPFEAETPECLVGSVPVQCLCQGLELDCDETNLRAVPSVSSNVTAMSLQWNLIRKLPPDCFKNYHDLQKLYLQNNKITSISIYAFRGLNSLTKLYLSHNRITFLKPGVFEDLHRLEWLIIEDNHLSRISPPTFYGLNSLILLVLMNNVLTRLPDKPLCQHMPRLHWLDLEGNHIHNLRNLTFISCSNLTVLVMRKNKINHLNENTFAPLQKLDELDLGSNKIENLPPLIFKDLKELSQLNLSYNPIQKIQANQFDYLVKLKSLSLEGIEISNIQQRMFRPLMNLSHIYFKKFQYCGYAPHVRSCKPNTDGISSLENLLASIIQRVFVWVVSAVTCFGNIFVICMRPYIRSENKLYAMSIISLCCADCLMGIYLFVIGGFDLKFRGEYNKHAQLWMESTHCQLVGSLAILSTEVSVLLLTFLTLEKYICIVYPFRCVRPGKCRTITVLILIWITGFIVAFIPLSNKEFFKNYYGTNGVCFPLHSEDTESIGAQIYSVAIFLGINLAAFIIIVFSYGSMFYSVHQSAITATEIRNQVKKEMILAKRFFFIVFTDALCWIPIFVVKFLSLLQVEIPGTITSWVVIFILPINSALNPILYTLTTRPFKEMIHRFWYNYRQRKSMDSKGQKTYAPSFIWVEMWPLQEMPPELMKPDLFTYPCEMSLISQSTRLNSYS
Text: Human RXFP1 cGMP Production Assay (Test G)
To profile compounds for RXFP1 agonist activity with respect to cGMP production, the Green GENIe cGMP Assay (Montana Molecular; catalogue number D800G) was employed. The assay is based on an nmNeonGreen fusion protein fluorescent biosensor delivered to mammalian cells in a BacMam vector. Fluorescence is reduced when cGMP is bound to the biosensor.
Cells: HEK293s cells stably transfected with human RXFP1 in pIRESneo3 was employed.
Day 1 • 1. Cells were splitted one day ahead of transduction and seeded to 63 000 cells/cm2 in DMEM medium with 10% FBS without antibiotics in a tissue culture flask.
Day 2 • 2. […] A viral transduction mastermix was prepared by mixing reagents in the following proportions for a single well: • 6 μL GENIe BacMAM vector • 0.2 μL 500 mM sodium butyrate • 13.8 μL DMEM medium with 10% FBS • 20 μL total volume • 5. Cells and transduction mastermix were mixed in proportions 30 μL cells and 20 μL mastermix for a single well. • 6. […] Plate was incubated in the dark at 37° C., 5% CO2 for 24 h.
Day 3 • 8. Medium was removed from plates using a Bluewasher (BluCatBio). • 9. 20 μL assay buffer was added with a Multidrop Combi (ThermoFisher). • 10. Plate was incubated in the dark at room temperature for 30 min prior to assaying. • 11. Plates were assayed using a FLIPR Tetra (Molecular Devices): 10 μL compound diluted with assay buffer was added to each well by the FLIPR Tetra and measuring green fluorescence over time for up to 3 h.
Data was processed using Screener software (Genedata A G). After subtraction of background fluorescence (before addition of compounds), area under curve values from 0 to 90 min after compound addition was used for calculation of responses.

[4] = molecular target: T1, human RXFP1; experiment: RXFP1 Hu cAMP (Test A); assay type: cell-based; design: expressed in transfected cells; host or cells: Jump-In T-REx CHO-K1 cells (ThermoFisher), induced with 10 ng/ml doxycycline for 24 h; details: RXFP1 Hu cAMP; for EC50: read-out: Test A EC50
How it was run: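 Competitive HTRF cAMP readout (2 h, room temperature) in CHO-K1 cells stably expressing human RXFP1, induced with 10 ng/ml doxycycline for 24 h; IBMX 0.5 mM final.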

Structure (SMILES)	hepatocyte CLint [1] [µL/min/1e6 cells]	solubility [2] [µM]	EC50 [3] [nM]	Test A Sinf [4] [%]	EC50 [4] [nM]
COc1cc(F)c(O[C@H]2CC[C@@H](C(=O)O)CC2)cc1C(=O)N[C@@H]1[C@H]2CC[C@H](C2)[C@@H]1C(=O)Nc1ccc(F)c(S(F)(F)(F)(F)F)c1 [Example 433]	17	240 (≈ 160 µg/mL)	19	109	5.3
COc1cc(F)c(O[C@H]2CC[C@@](C)(C(=O)O)CC2)cc1C(=O)N[C@@H]1[C@H]2CC[C@H](C2)[C@@H]1C(=O)Nc1ccc(F)c(S(F)(F)(F)(F)F)c1 [Example 353]	23	45 (≈ 30.7 µg/mL)	3.7	114	0.41
COc1cc(F)c(O[C@H]2CC[C@@](C)(C(=O)O)CC2)cc1C(=O)N[C@@H]1[C@H]2CC[C@H](C2)[C@@H]1C(=O)Nc1cccc(S(=O)(=O)C(F)(F)F)c1 [Example 208, (1S,4s)-4-(2-Fluoro-4-methoxy-5-(((1S,2R,3S,4R)-3-((3-((trifluoromethyl)sulfonyl)phenyl)carbamoyl)bicyclo[2.2.1]heptan-2-yl)carbamoyl)phenoxy)-1-methylcyclohexane-1-carboxylic acid]	35	130 (≈ 87.2 µg/mL)	9.3	108	< 2
COc1cc(F)c(-c2ccc(C(=O)O)cc2)cc1C(=O)N[C@H]1[C@@H](C(=O)Nc2cccc(S(=O)(=O)C(F)(F)F)c2)[C@@H]2C=C[C@H]1C2 (single isomer, unassigned) [Example 552]	16	> 1000	300	98	140

— patent publication US11667602B2, “Compounds and their use” (AstraZeneca AB, priority 2020, dated 2023)
